Results on 30 compounds are retold here after PubChem BioAssay (NCI).

Structures are written as SMILES.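 Exposure lasted 48 hours, with cells grown in 96-well plates and compounds tested at five concentrations. At the GI50, growth is halved. TGI marks complete inhibition of growth.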 Bounds are passed on as bounds.

Some test systems named below: SNB-78 CNS; KM20L2 colon; DMS 114 small cell lung; LXFL 529 NSCLC; M19-MEL melanoma; MCF7 breast; MDA-MB-231 breast; BT-549 breast; HS 578T breast.
Assay in all cases: growth of human tumour cells (NCI), 48 h

In the case of `CC1(C)CCOC(Sc2ccccc2)C1` (stereo not drawn), the TGI with SNB-78 CNS, in the assay with KM20L2 colon, in the assay with DMS 114 small cell lung, with LXFL 529 NSCLC and with M19-MEL melanoma was over 100 µM in each case.

On to `O=C1CC2=CCCC2O1` (stereo not drawn), for which the TGI in the assay on SNB-78 CNS, in the assay on DMS 114 small cell lung, in the assay on LXFL 529 NSCLC and in the assay on M19-MEL melanoma was over 100 µM throughout.

With `Cc1ccc(C)c(NC(=O)C(=O)C(C2C(C)CC(=O)C2CC(=O)O)[N+](=O)[O-])c1` (stereo not drawn), the TGI in the assay on SNB-78 CNS, in the assay on KM20L2 colon, in the assay with DMS 114 small cell lung, in the assay with LXFL 529 NSCLC and with M19-MEL melanoma was over 100 µM each time.

Turning to `O=C1c2ccccc2C(=O)N1CCN(CCN1C(=O)c2ccccc2C1=O)Cc1ccccc1`, the TGI in the assay with SNB-78 CNS, in the assay with KM20L2 colon, in the assay on DMS 114 small cell lung, with LXFL 529 NSCLC and in the assay with M19-MEL melanoma was over 100 µM throughout.

Regarding `CCN(CC)CCNc1ccc2nc(C)n3c4ccc(OC)cc4c(=O)c1c23`, the TGI in the assay on MCF7 breast was found to be 6.57 µM; in the assay with MDA-MB-231 breast it was 16.9 µM; in the assay on BT-549 breast, 22.5 µM; in the assay on DMS 114 small cell lung, 14.6 µM; in the assay with LXFL 529 NSCLC, 17.5 µM; in the assay with HS 578T breast, 6.68 µM. The compound also came in with a TGI with M19-MEL melanoma of 19.5 µM.

As to `O=[N+]([O-])C(=C1c2ccccc2-c2ccccc21)[N+](=O)[O-]`, the TGI in the assay with SNB-78 CNS, in the assay with KM20L2 colon and with LXFL 529 NSCLC was over 100 µM in each case.

Regarding `COC(=O)N1C=CC2=C(C)C3Nc4ccccc4C3C(C)=C2C1` (stereo not drawn), the TGI in the assay on SNB-78 CNS was 3.66 µM; in the assay on KM20L2 colon, over 100 µM; in the assay on DMS 114 small cell lung it was over 100 µM; in the assay with LXFL 529 NSCLC, 9.94 µM; with M19-MEL melanoma it was over 100 µM.

Consider `COC(=O)C(C(=O)C(=O)Nc1nc2ccc(OC)cc2s1)c1cnc2ccccc2n1` (stereo not drawn), for which the TGI in the assay on SNB-78 CNS, with KM20L2 colon, with LXFL 529 NSCLC and in the assay with M19-MEL melanoma was over 100 µM throughout.

Turning to `COc1cc(C(C)c2cc3c(cc2OCCCCCOc2cc4c(cc2C(C)c2cc(OC)c(OC)c(OC)c2)OCO4)OCO3)cc(OC)c1OC` (stereo not drawn), the TGI in the assay with KM20L2 colon, in the assay with LXFL 529 NSCLC and with M19-MEL melanoma was over 100 µM each time.

In the case of `O=S(=O)(c1ccccc1)C1(C2(S(=O)(=O)c3ccccc3)CCN=N2)CCN=N1` (stereo not drawn), the TGI with DMS 114 small cell lung, in the assay with LXFL 529 NSCLC and with M19-MEL melanoma was over 100 µM in each case.

Consider `CCOC(=O)c1ccc(N[C@@H]2c3cc4c(cc3C(c3cc(OC)c(O)c(OC)c3)[C@H]3C(=O)OCC32)OCO4)cc1` (stereo partly drawn), for which the TGI in the assay with MCF7 breast stood at 20.3 µM; in the assay with SNB-78 CNS, 66.2 µM; in the assay on MDA-MB-231 breast, 4.76 µM; with KM20L2 colon it was 10.7 µM; in the assay on BT-549 breast it was 4.58 µM; in the assay with DMS 114 small cell lung, 3.65 µM. Also, the TGI amounted to 34.7 µM with LXFL 529 NSCLC and 9.13 µM with M19-MEL melanoma. For the same compound, the GI50 is 0.326 µM in the assay with DMS 114 small cell lung and 0.697 µM with M19-MEL melanoma.

Turning to `CN(C)c1ccc(-c2nc(N)nc3c2CCCC3)cc1`, the TGI in the assay on SNB-78 CNS, in the assay with KM20L2 colon, with DMS 114 small cell lung, with LXFL 529 NSCLC and with M19-MEL melanoma was over 100 µM each time.

Regarding `Cc1nsc2cc(Cl)n(C)c(=O)c12`, the TGI in the assay on SNB-78 CNS, in the assay with KM20L2 colon, in the assay with DMS 114 small cell lung, with LXFL 529 NSCLC and in the assay with M19-MEL melanoma was over 100 µM each time.

With `COc1cc(Br)c(C=Nc2cccc3ccc(OS(=O)(=O)c4ccc([N+](=O)[O-])cc4)cc23)cc1OC`, the TGI with SNB-78 CNS, in the assay on DMS 114 small cell lung, in the assay on LXFL 529 NSCLC and in the assay on M19-MEL melanoma was over 100 µM each time.

Take `COc1cccc(C2=C(c3cn(C)c4c(C)cccc34)C(=O)NC2=O)c1`: the GI50 was 16.5 µM with MCF7 breast, 24.5 µM in the assay on MDA-MB-231 breast, over 25 µM in the assay with BT-549 breast and 5.93 µM with HS 578T breast. Besides, the TGI in the assay on MCF7 breast, with MDA-MB-231 breast, in the assay on BT-549 breast and with HS 578T breast was over 25 µM throughout.

As to `CCOC(=O)c1nc2sc(Cl)cn2c1/C=N/N=C(N)N`, the GI50 in the assay with MCF7 breast was 27.5 µM; in the assay with MDA-MB-231 breast, 14.3 µM; with BT-549 breast, 28.3 µM; in the assay with HS 578T breast, 19.1 µM. In addition, the TGI in the assay on MCF7 breast is over 58.7 µM; with MDA-MB-231 breast it was 37.2 µM; with BT-549 breast, over 59.6 µM; in the assay with HS 578T breast it was 74.5 µM.

Take `O=c1oc2cc(O)ccc2cc1-c1nc2ccccc2o1`: the TGI with MCF7 breast is over 100 µM; in the assay on MDA-MB-231 breast it was over 100 µM; with BT-549 breast it was 54 µM; in the assay on HS 578T breast, over 100 µM.

In the case of `O=C1c2c[n+](Cc3ccccc3)ccc2-c2nc3ccccc3c3ccnc1c23`, the GI50 with MCF7 breast is 0.163 µM; in the assay with MDA-MB-231 breast it was 0.711 µM; in the assay with BT-549 breast, 1.15 µM; in the assay with HS 578T breast, 1.03 µM. The TGI with MCF7 breast stood at 0.89 µM; in the assay on MDA-MB-231 breast, 3.21 µM; in the assay with BT-549 breast, 4.85 µM; in the assay on HS 578T breast, 10.2 µM.

Turning to `COc1ccc(C2=NC(CO)[C@H](c3ccccc3)O2)cc1OC` (stereo partly drawn), the TGI with KM20L2 colon, with DMS 114 small cell lung, with LXFL 529 NSCLC and in the assay on M19-MEL melanoma was over 100 µM each time.

For the compound `CN(C)Cc1c[nH]c2nc[nH]c(=O)c12`, the TGI with MCF7 breast was 67.7 µM; with MDA-MB-231 breast, over 100 µM; in the assay with BT-549 breast, over 100 µM; in the assay with HS 578T breast it was over 100 µM.

As for `CC(C)(C)c1ccc(OCCCCCCCN2CCNCC2)cc1`, the GI50 with MCF7 breast was 1.62 µM; with MDA-MB-231 breast it was 1.31 µM; with BT-549 breast, 1.53 µM; in the assay on HS 578T breast, 1.92 µM. For the same compound, the TGI with MCF7 breast came out at 3.26 µM; with MDA-MB-231 breast, 3.02 µM; with BT-549 breast, 3.01 µM; in the assay with HS 578T breast, 4.77 µM.

For `CC(=O)OC1CCC2(C)C(=CCC3C2CCC2(C)C3CC3OC4(CCC(C)CN4)C(C)C32)C1` (stereo not drawn), the TGI with MCF7 breast, in the assay with MDA-MB-231 breast, in the assay with BT-549 breast and in the assay on HS 578T breast was over 100 µM in each case.

As for `COc1ccc(C)cc1-c1ccc(-c2cc(C)ccc2OC)o1`, the TGI in the assay with SNB-78 CNS, in the assay on KM20L2 colon, in the assay on DMS 114 small cell lung, in the assay on LXFL 529 NSCLC and in the assay with M19-MEL melanoma was over 100 µM in each case.

On to `Cc1ccc(-c2csc3ncnc(Nc4cccc(O)c4)c23)cc1`, for which the GI50 in the assay with MCF7 breast was 41.6 µM; in the assay with MDA-MB-231 breast, over 100 µM; in the assay on BT-549 breast, 37 µM; in the assay with HS 578T breast, 36.5 µM. Moreover, the TGI in the assay with MCF7 breast was over 100 µM; with MDA-MB-231 breast it was over 100 µM; with BT-549 breast, 98.2 µM; in the assay with HS 578T breast it was over 100 µM.

On to `O=C1/C(=C/c2ccc([N+](=O)[O-])s2)Oc2ccc(Br)cc21`, for which the GI50 in the assay with MCF7 breast is 0.309 µM; with MDA-MB-231 breast, 0.201 µM; in the assay with BT-549 breast it was 0.257 µM; in the assay on HS 578T breast, 0.448 µM. The TGI with MCF7 breast is 1.87 µM; with MDA-MB-231 breast it was 0.436 µM; with BT-549 breast, 0.741 µM; in the assay on HS 578T breast, over 100 µM.

In the case of `CN(C)Cc1nsc(N(C)C)n1`, the TGI with MCF7 breast, in the assay with MDA-MB-231 breast, in the assay with BT-549 breast and in the assay on HS 578T breast was over 100 µM each time.

Take `Nc1ncnc2c1ncn2C1OC(F)(COS(N)(=O)=O)C(O)C1O` (stereo not drawn): the GI50 with MCF7 breast, in the assay with MDA-MB-231 breast, in the assay on BT-549 breast and in the assay with HS 578T breast was over 100 µM each time. The TGI in the assay on MCF7 breast, in the assay on MDA-MB-231 breast, in the assay with BT-549 breast and in the assay with HS 578T breast was over 100 µM throughout.

For `C(#Cc1ccccc1C#Cc1cnccn1)c1cnccn1`, the GI50 is 24.9 µM with MCF7 breast, 21.4 µM in the assay on MDA-MB-231 breast, 21.6 µM in the assay on BT-549 breast and 34.9 µM in the assay on HS 578T breast. In addition, the TGI with MCF7 breast was over 67.5 µM; in the assay on MDA-MB-231 breast, over 71.9 µM; in the assay on BT-549 breast it was over 85.8 µM; with HS 578T breast, over 100 µM.

Consider `CCCCCCCCCCCCNCCCc1ccccc1`, for which the GI50 with MCF7 breast was 1.81 µM; in the assay on MDA-MB-231 breast, 1.61 µM; in the assay on BT-549 breast, 1.75 µM; with HS 578T breast, 1.66 µM. Moreover, the TGI in the assay on MCF7 breast is 3.35 µM; with MDA-MB-231 breast, 3.12 µM; in the assay with BT-549 breast, 3.19 µM; with HS 578T breast, 3.72 µM.

Take `COc1cccc2c1C(=O)c1c(O)c3c(c(O)c1C2=O)C[C@@](O)(C(=O)CO)C[C@@H]3OC1CC2C(OCN2CN2COC3C(C)OC(O[C@H]4C[C@](O)(C(=O)CO)Cc5c(O)c6c(c(O)c54)C(=O)c4c(OC)cccc4C6=O)CC32)C(C)O1` (stereo partly drawn): the GI50 is 0.00264 µM in the assay with MCF7 breast, 0.0156 µM in the assay on MDA-MB-231 breast, 0.024 µM with BT-549 breast and 0.0394 µM with HS 578T breast. Moreover, the TGI was 0.12 µM in the assay on MCF7 breast, 0.072 µM with MDA-MB-231 breast, over 0.46 µM in the assay on BT-549 breast and over 1 µM in the assay on HS 578T breast.
